Reference: ChEMBL document CHEMBL4017442, “Recent updates of carbapenem antibiotics” (Eur J Med Chem, 2017)
One block for each molecule: values may come before it.

Key:
Staphylococcus aureus [1] = assay: Potentiation of imipenem-induced antibacterial activity against methicillin-reisitant Staphylococcus aureus assessed as fold reduction in imipenem MIC at 10 ug/ml measured after 20 hrs by liquid microdilution method relative to imipenem alone; type: functional
[2] = Half life in iv dosed human; type: ADME, organism-based; conditions: in vivo
Mus musculus = assay: Anti-inflammatory activity in mouse model of CLP-induced sepsis assessed as survival time at 25 ug/g, sc in presence of atorvastatin (reference value: 20 +/- 1.66 hrs); type: functional
Blood [3] = assay: Drug uptake in end-stage renal disease patient blood at 0.75 g, iv; type: ADME, tissue-based; conditions: human
Blood [4] = assay: Drug uptake in end-stage renal disease patient blood at 0.5 g, iv; type: ADME, tissue-based; conditions: human
[5] = Elimination half life in human at 1 g, iv administered as single dose; type: ADME, organism-based; conditions: in vivo, read-out: beta t1/2 (converted)
Plasma = assay: Protein binding in human plasma at < 50 ug/ml; type: ADME, cell-free
[6] = Clearance in end-stage renal disease patient undergoing drug hydrolysis; type: ADME; conditions: human
[7] = Ratio of drug level in serum to cerebrospinal fluid in human; type: ADME
[8] = Clearance in end-stage renal disease patient without drug hydrolysis; type: ADME; conditions: human
Staphylococcus aureus [9] = assay: Potentiation of imipenem-induced antibacterial activity against methicillin-reisitant Staphylococcus aureus assessed as imipenem MIC (reference value: 16 ug/ml); type: functional

Compound: C=C/C(C)=C/C[C@@H]1[C@@]2(C)CCCC(C)(C)[C@@H]2C[C@H](O)[C@]1(O)CSC[C@H](NC(C)=O)C(=O)OC
fold change (FC) (Staphylococcus aureus [1]): 533

Compound: C[C@@H](O)[C@H]1C(=O)N2C(C(=O)O)=C(SCCNC=N)C[C@H]12 [IMIPENEM ANHYDROUS]
half-life [2]: 1 h
Survival (Mus musculus): 56 h

Compound: C=C/C(C)=C/C[C@@H]1[C@@]2(C)CCC[C@](C)(CO)[C@@H]2C[C@H](O)[C@]1(O)CSC[C@H](NC(C)=O)C(=O)O
fold change (FC) (Staphylococcus aureus [1]): 123

Compound: O=C(O)CCNC(=O)c1ccccc1 [BETAMIPRON]
Drug uptake (Blood [3]): 39 mg/L
Drug uptake (Blood [4]): 24 mg/L

Compound: C=C/C(C)=C/C[C@@H]1[C@@]2(C)CCCC(C)(C)[C@@H]2C[C@H](O)[C@]1(O)CSC[C@H](NC(C)=O)C(=O)O
MIC (Staphylococcus aureus [9]): 0.05 µg/mL

Now from value to molecule:

half-life [5]: 4 h
PPB (Plasma): 94%
Compound: C[C@@H](O)[C@H]1C(=O)N2C(C(=O)O)=C(S[C@@H]3CN[C@H](C(=O)Nc4cccc(C(=O)O)c4)C3)[C@H](C)[C@H]12 [ERTAPENEM]

clearance [6]: 159 mL/min
Ratio [7]: 8
Drug uptake (Blood [3]): 61 mg/L
Drug uptake (Blood [4]): 37 mg/L
half-life [2]: 1.2 h
clearance [8]: 48.7 mL/min
Compound: CC(=N)N1CC[C@H](SC2=C(C(=O)O)N3C(=O)[C@H]([C@@H](C)O)[C@H]3C2)C1 [PANIPENEM]
